Reference: ChEMBL document CHEMBL5233247, “Recent advances in DNA gyrase-targeted antimicrobial agents” (Eur J Med Chem, 2020)
Values after ≈ are worked out from the molar mass of the structure shown.

Legend:
DNA gyrase [1] = biological target: T1, DNA gyrase (Staphylococcus aureus, UniProt P0A0K8+P20831); assay: Inhibition of Staphylococcus aureus DNA gyrase; format: protein-complex assay
DNA gyrase [2] = biological target: DNA gyrase (Escherichia coli, UniProt P0AES4+P0AES6); assay: Inhibition of Escherichia coli DNA gyrase; format: protein-complex assay
[3] = biological target: T2, DNA gyrase subunit A/DNA gyrase subunit B (Mycobacterium tuberculosis (strain ATCC 25618 / H37Rv), UniProt P9WG45+P9WG47); assay: Inhibition of Mycobacterium tuberculosis (MTB) DNA gyrase using pBR322 DNA by supercoiling assay; format: protein-complex assay
[4] = tested on: Mycobacterium tuberculosis; assay: Antimycobacterial activity against Mycobacterium tuberculosis incubated for 7 days by MABA assay; format: functional; conditions: 168 h, time 7 day
Escherichia coli [5] = assay: Antibacterial activity against Escherichia coli assessed as zone of inhibition; format: functional
[6] = tested on: Aggregatibacter actinomycetemcomitans; assay: Antibacterial activity against Aggregatibacter actinomycetemcomitans; format: functional
Bacillus subtilis = assay: Antibacterial activity against Bacillus subtilis; format: functional
Staphylococcus aureus [7] = assay: Antibacterial activity against methicillin-sensitive Staphylococcus aureus; format: functional, organism-based
Staphylococcus aureus [8] = assay: Antibacterial activity against healthcare-acquired methicillin-resistant Staphylococcus aureus; format: functional
Staphylococcus aureus [9] = assay: Antibacterial activity against community-acquired methicillin-resistant Staphylococcus aureus; format: functional
Enterococcus faecalis = assay: Antibacterial activity against Enterococcus faecalis; format: functional
Streptococcus pneumoniae = assay: Antibacterial activity against Streptococcus pneumoniae; format: functional
Acinetobacter baumannii = assay: Antibacterial activity against Acinetobacter baumannii; format: functional
[10] = biological target: T2, DNA gyrase subunit A/DNA gyrase subunit B; assay: Inhibition of Mycobacterium tuberculosis DNA gyrase; format: protein-complex assay
DNA gyrase [11] = biological target: T1, DNA gyrase; assay: Inhibition of Staphylococcus aureus DNA gyrase assessed as relaxation of pBR322 DNA by supercoiling assay; format: protein-complex assay
[12] = tested on: Mycobacterium tuberculosis; assay: Antitubercular activity against Mycobacterium tuberculosis H37Rv MTCC-200; format: functional
Staphylococcus aureus [13] = assay: Antibacterial activity against methicillin-resistant Staphylococcus aureus; format: functional, organism-based
Staphylococcus aureus [14] = assay: Antibacterial activity against Staphylococcus aureus; format: functional
Bacillus cereus = assay: Antibacterial activity against Bacillus cereus; format: functional
Escherichia coli [15] = assay: Antibacterial activity against Escherichia coli; format: functional
Klebsiella pneumoniae = assay: Antibacterial activity against Klebsiella pneumoniae; format: functional
Pseudomonas aeruginosa = assay: Antibacterial activity against Pseudomonas aeruginosa; format: functional
[16] = tested on: Mycolicibacterium smegmatis; assay: Antibacterial activity against Mycobacterium smegmatis; format: functional
[17] = tested on: Mycobacterium tuberculosis; assay: Anti-tubercular activity against Mycobacterium tuberculosis H37Rv strain; format: functional

T2 sequence (P9WG45 whole entry): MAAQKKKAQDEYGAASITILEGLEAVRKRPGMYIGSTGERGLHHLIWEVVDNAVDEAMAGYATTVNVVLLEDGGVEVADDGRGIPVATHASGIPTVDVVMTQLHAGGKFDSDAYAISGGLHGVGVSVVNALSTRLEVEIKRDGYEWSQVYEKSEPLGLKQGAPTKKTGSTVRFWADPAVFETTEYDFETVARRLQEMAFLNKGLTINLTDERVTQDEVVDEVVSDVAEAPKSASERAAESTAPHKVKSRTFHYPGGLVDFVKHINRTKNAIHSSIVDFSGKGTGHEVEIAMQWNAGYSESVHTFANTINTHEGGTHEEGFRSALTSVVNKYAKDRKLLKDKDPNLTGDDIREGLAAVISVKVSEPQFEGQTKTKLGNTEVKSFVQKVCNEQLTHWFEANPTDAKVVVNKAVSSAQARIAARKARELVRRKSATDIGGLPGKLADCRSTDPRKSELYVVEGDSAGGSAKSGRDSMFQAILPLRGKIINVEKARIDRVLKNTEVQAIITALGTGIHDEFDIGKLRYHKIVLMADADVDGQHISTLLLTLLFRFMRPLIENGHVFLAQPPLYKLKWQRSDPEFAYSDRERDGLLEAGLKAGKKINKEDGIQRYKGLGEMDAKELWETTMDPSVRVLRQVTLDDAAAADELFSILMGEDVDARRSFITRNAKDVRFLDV
T2 sequence (P9WG47 whole entry): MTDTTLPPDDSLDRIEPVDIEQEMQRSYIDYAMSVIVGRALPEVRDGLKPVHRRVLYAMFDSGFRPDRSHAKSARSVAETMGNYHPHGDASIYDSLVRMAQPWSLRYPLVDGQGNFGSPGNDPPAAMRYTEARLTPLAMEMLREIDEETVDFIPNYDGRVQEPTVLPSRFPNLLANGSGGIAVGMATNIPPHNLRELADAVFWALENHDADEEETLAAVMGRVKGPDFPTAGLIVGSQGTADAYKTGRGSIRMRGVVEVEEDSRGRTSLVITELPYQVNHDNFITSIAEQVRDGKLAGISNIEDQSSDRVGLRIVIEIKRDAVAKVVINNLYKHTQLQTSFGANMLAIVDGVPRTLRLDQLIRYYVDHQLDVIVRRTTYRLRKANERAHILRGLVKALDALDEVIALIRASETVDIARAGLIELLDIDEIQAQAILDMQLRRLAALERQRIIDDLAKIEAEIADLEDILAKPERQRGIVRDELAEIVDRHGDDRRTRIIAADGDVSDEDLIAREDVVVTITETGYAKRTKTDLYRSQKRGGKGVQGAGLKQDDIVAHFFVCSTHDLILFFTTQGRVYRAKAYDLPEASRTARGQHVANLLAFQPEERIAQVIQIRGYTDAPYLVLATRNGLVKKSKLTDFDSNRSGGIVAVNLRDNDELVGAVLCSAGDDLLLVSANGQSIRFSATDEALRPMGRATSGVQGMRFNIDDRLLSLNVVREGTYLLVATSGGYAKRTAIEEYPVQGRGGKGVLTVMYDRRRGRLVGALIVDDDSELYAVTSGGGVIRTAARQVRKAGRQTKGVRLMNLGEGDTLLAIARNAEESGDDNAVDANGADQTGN
T1 sequence (P0A0K8 whole entry): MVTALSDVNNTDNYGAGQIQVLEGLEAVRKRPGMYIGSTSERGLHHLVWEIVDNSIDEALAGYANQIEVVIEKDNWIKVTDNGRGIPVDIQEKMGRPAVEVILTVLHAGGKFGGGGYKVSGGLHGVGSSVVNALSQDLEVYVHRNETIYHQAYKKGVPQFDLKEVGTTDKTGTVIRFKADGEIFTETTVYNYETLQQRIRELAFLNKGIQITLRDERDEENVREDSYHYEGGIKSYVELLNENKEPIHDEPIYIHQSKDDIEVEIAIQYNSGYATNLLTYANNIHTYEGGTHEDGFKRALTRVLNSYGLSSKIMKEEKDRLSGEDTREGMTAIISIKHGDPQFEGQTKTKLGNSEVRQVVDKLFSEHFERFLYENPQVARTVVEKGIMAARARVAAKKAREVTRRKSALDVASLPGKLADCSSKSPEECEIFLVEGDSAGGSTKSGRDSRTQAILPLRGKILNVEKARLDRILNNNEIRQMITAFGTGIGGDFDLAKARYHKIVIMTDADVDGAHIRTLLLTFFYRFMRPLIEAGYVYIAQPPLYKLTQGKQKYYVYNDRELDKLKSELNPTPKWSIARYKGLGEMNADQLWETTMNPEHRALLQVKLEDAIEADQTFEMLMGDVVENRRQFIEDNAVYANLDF
T1 sequence (P20831 whole entry): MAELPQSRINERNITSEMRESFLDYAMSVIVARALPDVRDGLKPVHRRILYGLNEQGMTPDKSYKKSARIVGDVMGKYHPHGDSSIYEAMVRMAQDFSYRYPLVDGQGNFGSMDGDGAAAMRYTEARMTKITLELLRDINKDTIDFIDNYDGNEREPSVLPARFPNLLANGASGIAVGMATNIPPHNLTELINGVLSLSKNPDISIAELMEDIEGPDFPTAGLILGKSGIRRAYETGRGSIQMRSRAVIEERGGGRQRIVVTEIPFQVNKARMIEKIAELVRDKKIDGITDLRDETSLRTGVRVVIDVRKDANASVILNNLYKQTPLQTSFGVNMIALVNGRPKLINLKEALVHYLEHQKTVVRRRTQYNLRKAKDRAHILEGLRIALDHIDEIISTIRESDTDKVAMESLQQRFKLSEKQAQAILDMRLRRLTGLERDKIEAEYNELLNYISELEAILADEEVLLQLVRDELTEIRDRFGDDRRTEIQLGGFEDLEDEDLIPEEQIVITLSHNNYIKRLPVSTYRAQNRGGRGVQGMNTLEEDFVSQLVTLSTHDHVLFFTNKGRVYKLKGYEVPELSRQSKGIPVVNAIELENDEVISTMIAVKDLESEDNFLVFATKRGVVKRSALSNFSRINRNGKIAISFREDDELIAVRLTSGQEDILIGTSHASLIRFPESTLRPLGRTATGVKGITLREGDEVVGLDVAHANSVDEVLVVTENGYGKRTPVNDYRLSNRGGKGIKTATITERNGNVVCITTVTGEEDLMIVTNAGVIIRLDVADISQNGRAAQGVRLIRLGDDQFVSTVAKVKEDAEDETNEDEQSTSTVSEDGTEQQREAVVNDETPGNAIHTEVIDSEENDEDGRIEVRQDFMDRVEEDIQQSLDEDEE

O=C(O)CCC(=O)Nc1ccc(NC(=O)c2ccco2)cc1
IC50 (DNA gyrase [1]): 12.9 µM

O=C(O)C(=O)Nc1ccc(NC(=O)c2cc(Br)c(Br)[nH]2)cc1
IC50 (DNA gyrase [2]): 180 nM

Cc1ccc(NC(=S)N2CCN(c3nc(=O)c4cc([N+](=O)[O-])ccc4s3)CC2)cc1
IC50 [3]: 770 nM
MIC [4]: 1.82 µM (≈ 0.804 µg/mL)

O=c1nc(N2CCN(C(=S)Nc3ccc(Cl)cc3)CC2)sc2ccc([N+](=O)[O-])cc12
IC50 [3]: 820 nM
MIC [4]: 2.83 µM (≈ 1.31 µg/mL)

O=c1nc(N2CCN(C(=S)Nc3ccccc3)CC2)sc2ccc([N+](=O)[O-])cc12
IC50 [3]: 510 nM
MIC [4]: 4.41 µM (≈ 1.89 µg/mL)

O=C(O)C(=O)Nc1nc2ccc(NC(=O)c3cc(Br)c(Br)[nH]3)cc2s1
IC50 (DNA gyrase [2]): 58 nM

O=C(O)CNC(=O)Cc1csc(NC(=O)c2cc(Br)c(Br)[nH]2)n1
IC50 (DNA gyrase [2]): 15900 nM

COc1ccc2c3conc3c(=O)n(CCN3CCC(NCc4ccc5c(n4)NC(=O)CO5)CC3)c2c1
IC50 (DNA gyrase [2]): 416 nM

CCn1cc(-c2nc(/N=C/c3ccc(Br)cc3)n[nH]2)c(=O)c2cc(Br)c(C)nc21
IC50 (DNA gyrase [2]): 3370 nM
inhibition zone (IZ) (Escherichia coli [5]): 23 mm

CCn1cc(-c2nc(NC(=O)c3ccccc3)n[nH]2)c(=O)c2cc(Br)c(C)nc21
MIC [6]: 4.25 µM (≈ 1.93 µg/mL)

CCn1cc(-c2nc(NC(=O)c3ccccc3)n[nH]2)c(=O)c2ccc(C)nc21
IC50 (DNA gyrase [2]): 10400 nM
MIC (Bacillus subtilis): 3.68 µM (≈ 1.38 µg/mL)

COc1c(N2CC3CCCCC3C2)c(F)cc2c(=O)c(C(=O)N3CCSC3)cn(C3CC3)c12 (stereo not drawn)
MIC (Staphylococcus aureus [7]): 0.79 µg/mL (≈ 1.68 µM)
MIC (Staphylococcus aureus [8]): 0.79 µg/mL (≈ 1.68 µM)
MIC (Staphylococcus aureus [9]): 25 µg/mL (≈ 53 µM)
MIC (Enterococcus faecalis): 12.6 µg/mL (≈ 26.7 µM)
MIC (Streptococcus pneumoniae): 50 µg/mL (≈ 106 µM)
MIC (Acinetobacter baumannii): 101 µg/mL (≈ 214 µM)
IC50 [10]: 105 µM

COC(=O)c1ccc(CNC(=O)[C@H](Cc2ccc(O)cc2)NC(=O)c2cc(Br)c(Br)[nH]2)cc1
IC50 (DNA gyrase [2]): 970 nM

COc1cc2c(cc1OCCCC(=O)Nc1cc(C(=O)Nc3ccc4occc4c3)n(C)c1)N=C[C@@H]1CCCN1C2=O
IC50 (DNA gyrase [11]): 2.9 µM

O=C1COc2ccc(CNC3CCN(CCn4c(=O)c5nocc5c5ncccc54)CC3)nc2N1
IC50 (DNA gyrase [2]): 442 nM

COc1cc2c(cc1OCCCC(=O)Nc1cc(C(=O)Nc3ccc4sccc4c3)n(C)c1)N=C[C@@H]1CCCN1C2=O
IC50 (DNA gyrase [11]): 3.89 µM

COc1ccc2c3conc3c(=O)n(CCN3CCC(NCc4nc5c(cc4F)OCC(=O)N5)CC3)c2c1
IC50 (DNA gyrase [2]): 402 nM

COC(=O)CNC(=O)c1ccc(NC(=O)c2cc(Cl)c(Cl)[nH]2)c(OCC(C)C)c1
IC50 (DNA gyrase [2]): 2300 nM

O=C1Nc2ccccc2/C1=C/c1ccc(OC(=O)c2ccccc2)cc1
MIC [12]: 73 µg/mL (≈ 214 µM)

CCn1cc(C(=O)N[C@H](CCCNC(=N)N)C(=O)N[C@@H](CC2CCCCC2)C(=O)N[C@H](CCCNC(=N)N)C(=O)N[C@@H](CC2CCCCC2)C(=O)N[C@H](CCCNC(=N)N)C(=O)N[C@@H](CC2CCCCC2)C(N)=O)c(=O)c2ccc(C)nc21
IC50 (Staphylococcus aureus [13]): 1 µg/mL (≈ 0.862 µM)
IC50 (Staphylococcus aureus [7]): 18 µg/mL (≈ 15.5 µM)
IC50 (DNA gyrase [1]): 25 µM

CCNC(=O)Nc1nc2ccc(NC(=O)Cc3csc(NC(=O)OC(C)(C)C)n3)cc2s1
IC50 (DNA gyrase [2]): 3900 nM

CCn1cc(-c2nnc(Nc3ccc(OC)cc3)o2)c(=O)c2cc(Br)c(C)nc21
IC50 (DNA gyrase [2]): 8530 nM
MIC (Staphylococcus aureus [14]): 5.7 µg/mL (≈ 12.5 µM)
MIC (Bacillus cereus): 5.7 µg/mL (≈ 12.5 µM)
MIC (Escherichia coli [15]): 5.7 µg/mL (≈ 12.5 µM)
MIC (Klebsiella pneumoniae): 5.7 µg/mL (≈ 12.5 µM)
MIC (Pseudomonas aeruginosa): 5.7 µg/mL (≈ 12.5 µM)
MIC [16]: 5.7 µg/mL (≈ 12.5 µM)

CCn1cc(-c2nnc(Nc3ccc(C)cc3)o2)c(=O)c2cc(Br)c(C)nc21
MIC (Staphylococcus aureus [14]): 5.5 µg/mL (≈ 12.5 µM)
MIC (Bacillus cereus): 5.5 µg/mL (≈ 12.5 µM)
MIC (Escherichia coli [15]): 5.5 µg/mL (≈ 12.5 µM)
MIC (Klebsiella pneumoniae): 5.5 µg/mL (≈ 12.5 µM)
MIC (Pseudomonas aeruginosa): 5.5 µg/mL (≈ 12.5 µM)
MIC [16]: 5.5 µg/mL (≈ 12.5 µM)

COc1cc(/C=N/Nc2nc(-c3ccc(Br)cc3)cs2)ccc1Oc1ccnc2cc(Cl)ccc12
MIC [17]: 3.12 µM (≈ 1.77 µg/mL)
